# Data from US20040170653A1, “Tumour peptide antigen produced from human mdm2 proto-oncogene” (priority 2001, published 2004).
# Read-outs that look alike come from different tables or passages of the source.
# Tests used:
# resting B cells = test: CTL recognition of resting lymphohemopoietic cells, 6-hour cytotoxicity test; type: cell-based; details: cells loaded with peptide 10 μM
# HLA-A2.1 = HLA-A2.1 (Homo sapiens, UniProt P04439, D140Y/D185E/D98H/E176V/E277Q/G131W/G231S/I119V/I121R/I166T/I218V/L300P/L318F/N151K/N90K/P208A/P217A/Q86G/Q94H/R138H/R169H/T345S); test: Competition test: inhibition of A2.1 binding of peptide p53 264-272, read as p53-specific CTL lysis of loaded EA2 cells; details: for inhibition of the A2.1 binding of the competing peptide p53 264-272: EA2 cells with 0.01 μg p53 264-272, 4-hour test; for A2.1-binding activity (in words): competitive binding test
# resting T cells = test: CTL recognition of resting lymphohemopoietic cells, 6-hour cytotoxicity test; type: cell-based; details: cells loaded with peptide 10 μM
# EL4 cells (H-2^b) = test: Cytotoxicity test of hdm2 81-88-specific CTL on peptide-loaded A2.1-negative EL4 cells (A2.1 restriction); type: cell-based, mouse
# PBMC = test: CTL recognition of resting lymphohemopoietic cells, 6-hour cytotoxicity test; type: cell-based; details: cells loaded with peptide 10 μM
# [1] = test system: A2K^b- and CD8×A2K^b transgenic mice; test: A2.1-restricted immunogenicity of synthetic peptides after immunization; cytotoxicity test of induced CTL on peptide-loaded T2A2K^b cells; type: in vivo, mouse; details: peptide immunization in IFA, in vitro stimulation, 4-hour cytotoxicity test
# T2 cells = test: Cytotoxicity test (51Cr release) of hdm2 81-88-specific CTL on peptide-loaded T2 target cells (peptide titration, peptide specificity); type: cell-based, human; details: for absolute maximal lysis: peptide titration
# mature DC = test: CTL recognition of activated mature dendritic cells, 6-hour cytotoxicity test; type: cell-based; details: cells loaded with peptide 10 μM
# [2] = test system: tyrosinase-specific CTL clone IVSB; test: CTL recognition of antigen-activated T cells, 6-hour cytotoxicity test; type: cell-based, human; details: cells loaded with peptide 10 μM
# Method: FIG. 22: Absence of substantial recognition of antigen-activated T cells. CTL A2 81, CTL CD8×A2 K^b 81, allo-A2.1-reactive CTL and CTL CD8×A2 K^b Flu M1 were tested as effector cells under the E:T ratios indicated in a 6-hour cytotoxicity test against tyrosinase-specific CTL clone IVSB (●) and the same cells loaded with hdm2 81-88 peptide (10 μM) (▴). The target cells were treated with the anti-A2.1 monoclonal antibody PA2.1 as shown (∘).
# An A2.1-positive CTL clone “IVSB” having specificity for the tyrosinase peptide 369-377 was produced and made available using technically customary methods.
# The lytic reactivity of the effector cells against various target cells was checked in a ^51Cr release test (Theobald et al., 1995). T2 and T2A2 K^b cells were employed as target cells for peptide titration tests. 1-5 Mio target cells were labeled for 60-90 min with 150 μCi of Na (^51Cr) 04 (1 mCi/ml) (NEN Life Science, Belgium). […] The cells were then centrifuged off (1300 rpm, 5° C., 9 min), the supernatant (0.1 ml/well) was taken off and the ^51Cr release was measured using a gamma-“counter” (Canberra Packard, Dreieich). The percentage specific lysis (SL) was calculated according to the following formula: [formula] […]
substance,measurement,setting,value
"LLGDLFGV [hdm2 81-88, oligopeptide, amino acid positions 81 to 88 of the hdm2 proto-oncoprotein]",CTL recognition after loading with exogenous peptide,resting B cells,reconstituted
same,inhibition of the A2.1 binding of the competing peptide p53 264-272,HLA-A2.1; 10 μg test peptide,100%
same,A2.1-binding activity (in words),HLA-A2.1,strongly binding
same,CTL recognition after loading with exogenous peptide,resting T cells,reconstituted
same,recognition of peptide-loaded EL4 cells by CTL induced by hdm2 81-88,"EL4 cells (H-2^b); CTL from immunized A2K^b- or CD8×A2K^b-transgenic mice, 2 μg peptide",not recognized
same,lytic activity of hdm2 81-88-reactive CTL lines on peptide-loaded EL4 cells,EL4 cells (H-2^b); CTL lines A2 81 and CD8×A2 K^b 81,no lytic activity at all
same,CTL recognition after loading with exogenous peptide,PBMC,reconstituted
same,A2.1-restricted and peptide-specific CTL response,[1],demonstrated
same,EC50,"T2 cells; CTL line A2 81, E:T 10:1, 4-hour test, read-out: peptide concentration at half-maximal lysis of the target cells",0.069 nM
same,EC50,"T2 cells; CTL line CD8×A2K^b 81, E:T 10:1, 4-hour test, read-out: peptide concentration at half-maximal lytic activity",0.036 nM
same,lysis of peptide-loaded T2 cells by both hdm2 81-88-specific CTL lines,"T2 cells; CTL lines A2 81 and CD8×A2 K^b 81, 4-hour test",lyzed efficiently
same,EC50,"T2 cells; I° CTL A2 81, 6-hour test, read-out: peptide concentration at half-maximal lysis of the target cells",0.95 nM
same,absolute maximal lysis,T2 cells; I° CTL A2 81,62%
same,EC50,"T2 cells; I° CTL CD8×A2 K^b 81, 6-hour test, read-out: peptide concentration at half-maximal lysis of the target cells",0.2 nM
same,absolute maximal lysis,T2 cells; I° CTL CD8×A2 K^b 81,100%
same,CTL lysis after loading with exogenous peptide,mature DC,reconstituted
same,CTL lysis after loading with exogenous peptide,[2],reconstitute
"hdm2 33-41: synthetic hdm2 peptide, residues 33-41 (LLLKLLKSV; UniProt Q00987 33-41, looked up, fragment)",inhibition of the A2.1 binding of the competing peptide p53 264-272,HLA-A2.1; 10 μg test peptide,100%
same,A2.1-binding activity (in words),HLA-A2.1,strongly binding
same,A2.1-restricted and peptide-specific CTL response,[1],demonstrated
"hdm2 48-57: synthetic hdm2 peptide, residues 48-57 (YTMKEVLFYL; UniProt Q00987 48-57, looked up, fragment)",inhibition of the A2.1 binding of the competing peptide p53 264-272,HLA-A2.1; 10 μg test peptide,100%
"hdm2 80-88: synthetic hdm2 peptide, residues 80-88; contaminated with hdm2 81-88 (DLLGDLFGV; UniProt Q00987 80-88, looked up, fragment)",inhibition of the A2.1 binding of the competing peptide p53 264-272,HLA-A2.1; 10 μg test peptide,100%
same,A2.1-binding activity (in words),HLA-A2.1,strongly binding
same,A2.1-restricted and peptide-specific CTL response,[1],demonstrated
same,recognition of HPLC-purified peptide by hdm2 81-88-specific CTL,"T2 cells; HPLC fraction 23, T2 cells, CTL CD8×A2 K^b 81, E:T 20:1",cross-reactivity
"hdm2 101-110: intermediately binding synthetic hdm2 peptide, residues 101-110 (TMIYRNLVVV; UniProt Q00987 101-110, looked up, fragment)",A2.1-binding activity (in words),HLA-A2.1,intermediately binding
same,A2.1-restricted and peptide-specific CTL response,[1],demonstrated
"tyrosinase 369-377: A2.1-binding peptide tyrosinase 369-377, positive control [reference compound]",inhibition of the A2.1 binding of the competing peptide p53 264-272,HLA-A2.1; 3 μg test peptide,100%
same,inhibition of the A2.1 binding of the competing peptide p53 264-272,HLA-A2.1; 10 μg test peptide,100%
